Measurements: US9416149B2, “Methods to modulate Rac1 import and to treat pulmonary fibrosis” (University of Iowa Research Foundation, priority 2013, dated 2016)

What was measured:
[1] = test system: bleomycin-induced pulmonary fibrosis; experiment: Progression of bleomycin-induced pulmonary fibrosis in mice, osmotic pumps installed seven days after bleomycin; format: in vivo
Description: (§1) Wild-type C57Bl/6 mice were from Jackson Laboratories (Bar Habor, Me.). The University of Iowa Institutional Animal Care and Use Committee approved all protocols. After equilibration, osmotic pumps (Alzet, Cupertino, Calif.) containing either vehicle (water) or DGBP (0.2 mg/kg/day) were implanted subcutaneously, as describe previously (Erickson, J. R., et al., A dynamic pathway for calcium-independent activation of CaMKII by methionine oxidation. Cell, 2008. 133(3): p. 462-74). Bleomycin (2.0 U/kg) or chrysotile ([…]) was administered intratracheally. Mice were euthanized and fibrosis determined as previously described (Osborn-Heaford, H. L., et al., Mitochondrial Rac1 GTPase Import and Electron Transfer from Cytochrome c Are Required for Pulmonary Fibrosis. The Journal of biological chemistry, 2012. 287(5): p. 3301-12, He, C., et al., Accelerated Development of Pulmonary Fibrosis via Cu,Zn-superoxide Dismutase-induced Alternative Activation of Macrophages. J Biol Chem, 2013. 288(28): p. 20745-57).
Lung tissue was dried to stable weight and acid hydrolyzed with 6N HCl for 24 h at 120° C. […]

Macrophages [2] = experiment: Mitochondrial H2O2 generation in macrophages exposed to chrysotile asbestos (pHPA assay); format: cell-based; settings: Example 1, FIG. 2; DGBP 10 mM; chrysotile asbestos 10 μg/cm^2; isolated mitochondria
Description: (§2) Extracellular H2O2 production was determined fluorometrically, as previously described (He, C., et al., Mitochondrial Cu,Zn-Superoxide Dismutase Mediates Pulmonary Fibrosis by Augmenting H2O2 Generation. J Biol Chem, 2011. 286(17): p. 15597-607). Briefly, cells were incubated in phenol-red free Hanks' balanced salt solution supplemented with 6.5 mM glucose, 1 mM HEPES, 6 mM sodium bicarbonate, 1.6 mM pHPA, and 0.95 μg/ml HRP. Fluorescence of the pHPA-dimer was measured using a spectrofluorometer at excitation of 320 nm and emission of 400 nm. Mitochondrial H2O2 was measured by resuspending mitochondria in phenol-red free Hanks' balanced salt solution supplemented with 6.5 mM glucose, 1 mM HEPES, 6 mM sodium bicarbonate, 1.6 mM pHPA, 0.95 μg/ml HRP and 5 mM α-ketoglutarate.
(§3) Mitochondria were isolated as previously described (He, C., et al., Mitochondrial Cu,Zn-Superoxide Dismutase Mediates Pulmonary Fibrosis by Augmenting H2O2 Generation. J Biol Chem, 2011. 286(17): p. 15597-607).

[3] = test system: chrysotile-induced pulmonary fibrosis; experiment: Chrysotile asbestos-induced pulmonary fibrosis in mice, DGBP via subcutaneous osmotic pump; format: in vivo
Description: To determine the biological relevance of DGBP on oxidative stress in vivo, WT mice were exposed to asbestos (100 μg i.t.). The mice were treated with vehicle or DGBP via administration utilizing a subcutaneous osmotic pump. After 21 days, the mice were euthanized, and lung oxidative stress was determined by GSH assay.
as §1, §3
(§4) Lung tissue was dried to stable weight and acid hydrolyzed with 6N HCl for 24 h at 120° C. Hydroxyproline concentration normalized, to dry weight of the lung, was determined as described previously (Osborn-Heaford, H. L., et al., Mitochondrial Rac1 GTPase Import and Electron Transfer from Cytochrome c Are Required for Pulmonary Fibrosis. The Journal of biological chemistry, 2012. 287(5): p. 3301-12).
(§5) Reduced and oxidized glutathione in the lung were determined as described previously (He, C., et al., Mitochondrial Cu,Zn-Superoxide Dismutase Mediates Pulmonary Fibrosis by Augmenting H2O2 Generation. J Biol Chem, 2011. 286(17): p. 15597-607).
(§6) Whole cells lysates and sub-cellular fractions were separated by SDS-PAGE and transferred to PVDF membranes. Immunoblot analyses on the membranes were performed with the designated antibodies followed by the appropriate secondary antibody cross-linked to HRP.
To determine if geranylgeranylation of Rac1 is associated with other forms of pulmonary fibrosis, the role of DGBP in modulating chrysotile-induced pulmonary fibrosis was tested. WT mice with subcutaneous osmotic pumps delivering vehicle or DGBP were exposed to chrysotile as previously described (He, C., et al., Mitochondrial Cu,Zn-Superoxide Dismutase Mediates Pulmonary Fibrosis by Augmenting H2O2 Generation. J Biol Chem, 2011. 286(17): p. 15597-607, Osborn-Heaford, H. L., et al., Mitochondrial Rac1 GTPase Import and Electron Transfer from Cytochrome c Are Required for Pulmonary Fibrosis. The Journal of biological chemistry, 2012. 287(5): p. 3301-12, Murthy, S., et al., Rac1-mediated Mitochondrial H2O2 Generation Regulates MMP-9 Gene Expression in Macrophages via Inhibition of SP-1 and AP-1. J Biol Chem, 2010. 285(32): p. 25062-73). It was first determined if DGBP altered mitochondrial Rac1 localization in BAL cells. Alveolar macrophages were obtained by BAL 21 days after chrysotile exposure. […] Lung oxidative stress was also evaluated. […]

Macrophages [4] = experiment: H2O2 generation in macrophages exposed to chrysotile asbestos (pHPA assay); format: cell-based
Description: as §2

[5] = test system: bleomycin-induced pulmonary fibrosis; experiment: Bleomycin-induced pulmonary fibrosis in mice, DGBP via subcutaneous osmotic pump; format: in vivo
Description: as §1, §3, §4, §5, §6
Active TGF-β in BAL fluid was measured by ELISA (R&D, Minneapolis, Minn.), according to manufacturer's instructions.
Because bleomycin increased mitochondrial oxidative stress in alveolar macrophages in vivo, it was next evaluated if bleomycin modulates Rac1 mitochondrial import. Osmotic pumps containing either vehicle (water) or DGBP were implanted subcutaneously in WT mice. DGBP was delivered at a dose of 0.2 mg/kg/day. Mice were exposed to saline or bleomycin the following day, and BAL was performed 21 days later to obtain alveolar macrophages. Mitochondria were isolated to investigate Rac1 localization.

THP-1 cells = experiment: Mitochondrial H2O2 generation in THP-1 cells exposed to chrysotile (pHPA assay); format: cell-based; settings: FIG. 11F, DGBP 10 μM overnight, chrysotile 10 μg/cm^2 for 1 h
Description: (§7) THP-1, MLE-12, and HLF-1 cell lines were obtained from American Type Culture Collection (Manassas, Va.). Cells were maintained in RPMI-1640, Hites, or F-12K media supplemented with fetal bovine serum and penicillin/streptomycin. All experiments were performed with media supplemented with 0.5% serum.
as §2
(§8) Mitochondria were isolated as previously described (He, C., et al., Mitochondrial Cu,Zn-Superoxide Dismutase Mediates Pulmonary Fibrosis by Augmenting H2O2 Generation. J Biol Chem, 2011. 286(17): p. 15597-607). […]

Rac1 = experiment: Mitochondrial Rac1 import, immunoblot for Flag-Rac1 in isolated mitochondria of transfected macrophages; format: cell-based; settings: for localization of Rac1 to the mitochondria: Example 2, FIG. 8D
Description: as §3, §6
(§9) To determine if DGBP inhibits Rac1 import into mitochondria, we exposed macrophages to vehicle (water) or DGBP in cells transfected with an empty control or a wild-type Rac1 expression vector (pRK-Flag-Rac1). […] To confirm that DGBP reduced Rac1 import secondary to inhibiting geranylgeranylation, an immunoblot analysis for Rap 1A, which only recognizes non-geranylgeranylated proteins and is indicative of reduced GGPP levels was performed (Weivoda, M. M. and R. J. Hohl, The effects of direct inhibition of geranylgeranyl pyrophosphate synthase on osteoblast differentiation. J Cell Biochem, 2011. 112(6): p. 1506-13, Wasko, B. M., A. Dudakovic, and R. J. Hohl, Bisphosphonates induce autophagy by depleting geranylgeranyl diphosphate. J Pharmacol Exp Ther, 2011. 337(2): p. 540-6). […] To examine whether DGBP altered H2O2 levels, cells were treated similarly as above described with DGBP (10 mM).

[6] = Apparent toxicity at the concentrations and doses used in the studies; settings: in vitro or in vivo
Rap1A = experiment: Geranylgeranylation, immunoblot for non-geranylgeranylated Rap1A in macrophages; format: cell-based
Description: as §6, §9

MLE-12 cells = experiment: Mitochondrial H2O2 generation in MLE-12 cells exposed to chrysotile (pHPA assay); format: cell-based; settings: FIG. 11G, DGBP 10 μM overnight, chrysotile 10 μg/cm^2 for 1 h
Description: as §7, §2, §8

HLF-1 cells = experiment: Mitochondrial H2O2 generation in HLF-1 cells exposed to chrysotile (pHPA assay); format: cell-based; settings: FIG. 11H, DGBP 10 μM overnight, presence or absence of chrysotile
Description: as §7, §2, §8

digeranyl bisphosphonate [DGBP]
lung collagen deposition (Masson's trichrome) ([1]; FIG. 10C, DGBP 0.2 mg/kg/day from seven days after bleomycin, 21 days after bleomycin): small patches of collagen deposition, but there was significantly less collagen compared to mice that received vehicle
lung hydroxyproline content ([1]; FIG. 10D, DGBP from seven days after bleomycin, vs vehicle): significantly less hydroxyproline
mitochondrial H2O2 generation (Macrophages [2]): abrogated asbestos-induced mitochondrial H2O2 generation below control levels
lung oxidative stress (GSH assay) ([3]; Example 1, FIG. 4, asbestos 100 μg i.t., after 21 days, vs vehicle): significant reduction in lung oxidative stress
pulmonary fibrosis (hydroxyproline assay) ([3]; Example 1, FIG. 5, chrysotile asbestos 100 μg i.t., 21 days, vs vehicle): significantly less pulmonary fibrosis
oxidized GSH (% GSSG) in the lung, vehicle relative to DGBP ([3]; FIG. 11B, chrysotile, 21 days): 2.5 fold
lung histology (Masson's trichrome) ([3]; FIG. 11D, chrysotile, after 21 days): essentially normal
lung hydroxyproline ([3]; FIG. 11E, chrysotile, after 21 days, water vs DGBP): confirmed by hydroxyproline assay
H2O2 generation (Macrophages [4]; Example 1, FIG. 1, DGBP 10 mM, chrysotile asbestos 10 μg/cm^2): significant reduction in H2O2 to control levels
H2O2 levels (Macrophages [4]; Example 2, FIG. 8F, DGBP 10 mM overnight, presence and absence of chrysotile 10 μg/cm^2, 90 min): decreased H2O2 to control levels
pulmonary fibrosis (hydroxyproline assay) ([5]; Example 1, FIG. 6, bleomycin 2.0 U/kg i.t., 21 days, vs vehicle): significantly less pulmonary fibrosis
immunoreactive Rac1 in alveolar macrophage mitochondria ([5]; FIG. 9B, DGBP 0.2 mg/kg/day, bleomycin 2.0 U/kg, BAL 21 days later): significant reduction in immunoreactive Rac1 in mitochondria
non-geranylgeranylated Rap1A in BAL cells ([5]; FIG. 9B, DGBP 0.2 mg/kg/day, immunoblot): non-geranylgeranylated Rap 1A was increased
oxidized GSH (% GSSG) in lung, vehicle vs DGBP ([5]; FIG. 9C, bleomycin, after 21 days): significantly higher oxidized GSH (% GSSG) than the lungs of mice that received DGBP
active TGF-β in BAL fluid, vehicle relative to DGBP ([5]; FIG. 9D, bleomycin, DGBP 0.2 mg/kg/day, ELISA): greater than 5 fold
lung histology (Masson's trichrome) ([5]; FIG. 9F, bleomycin): normal lung architecture
lung hydroxyproline ([5]; FIG. 9G, following bleomycin exposure, vs vehicle): significantly less hydroxyproline
mitochondrial H2O2 generation (THP-1 cells): reduced chrysotile-induced H2O2 significantly at all time points
mitochondrial Rac1 import (Rac1; Example 1, FIG. 3A, chrysotile asbestos 10 μg/cm^2 for 1 h): inhibited mitochondrial Rac1 import in a dose-dependent manner
localization of Rac1 to the mitochondria (Rac1; 1 mM DGBP overnight, chrysotile 10 μg/cm^2 for 90 min): Chrysotile induced localization of Rac1 to the mitochondria
localization of Rac1 to the mitochondria (Rac1; 10 mM DGBP overnight, presence or absence of chrysotile): Rac1 was absent from the mitochondria
apparent toxicity [6]: not associated with apparent toxicity in vitro or in vivo
geranylgeranylation (Rap1A immunoblot) (Rap1A; Example 1, FIG. 3B, whole cell lysates): inhibition of geranylgeranylation
Rap1A geranylgeranylation (Rap1A; Example 2, FIG. 8E, 10 mM DGBP, isolated cytoplasm): impaired Rap1A geranylgeranylation
mitochondrial H2O2 generation (MLE-12 cells): increased H2O2 generation in cells exposed to chrysotile
mitochondrial H2O2 generation (HLF-1 cells): increased H2O2 in the presence or absence of chrysotile
